The structures appear in SMILES notation. pIC50: −log10 of the molar value.

What is called pIC50 is the IC50 on a negative log10 scale, so that one unit is a factor of ten.

Chain of human fatty acid synthase FASN (P49327 whole entry): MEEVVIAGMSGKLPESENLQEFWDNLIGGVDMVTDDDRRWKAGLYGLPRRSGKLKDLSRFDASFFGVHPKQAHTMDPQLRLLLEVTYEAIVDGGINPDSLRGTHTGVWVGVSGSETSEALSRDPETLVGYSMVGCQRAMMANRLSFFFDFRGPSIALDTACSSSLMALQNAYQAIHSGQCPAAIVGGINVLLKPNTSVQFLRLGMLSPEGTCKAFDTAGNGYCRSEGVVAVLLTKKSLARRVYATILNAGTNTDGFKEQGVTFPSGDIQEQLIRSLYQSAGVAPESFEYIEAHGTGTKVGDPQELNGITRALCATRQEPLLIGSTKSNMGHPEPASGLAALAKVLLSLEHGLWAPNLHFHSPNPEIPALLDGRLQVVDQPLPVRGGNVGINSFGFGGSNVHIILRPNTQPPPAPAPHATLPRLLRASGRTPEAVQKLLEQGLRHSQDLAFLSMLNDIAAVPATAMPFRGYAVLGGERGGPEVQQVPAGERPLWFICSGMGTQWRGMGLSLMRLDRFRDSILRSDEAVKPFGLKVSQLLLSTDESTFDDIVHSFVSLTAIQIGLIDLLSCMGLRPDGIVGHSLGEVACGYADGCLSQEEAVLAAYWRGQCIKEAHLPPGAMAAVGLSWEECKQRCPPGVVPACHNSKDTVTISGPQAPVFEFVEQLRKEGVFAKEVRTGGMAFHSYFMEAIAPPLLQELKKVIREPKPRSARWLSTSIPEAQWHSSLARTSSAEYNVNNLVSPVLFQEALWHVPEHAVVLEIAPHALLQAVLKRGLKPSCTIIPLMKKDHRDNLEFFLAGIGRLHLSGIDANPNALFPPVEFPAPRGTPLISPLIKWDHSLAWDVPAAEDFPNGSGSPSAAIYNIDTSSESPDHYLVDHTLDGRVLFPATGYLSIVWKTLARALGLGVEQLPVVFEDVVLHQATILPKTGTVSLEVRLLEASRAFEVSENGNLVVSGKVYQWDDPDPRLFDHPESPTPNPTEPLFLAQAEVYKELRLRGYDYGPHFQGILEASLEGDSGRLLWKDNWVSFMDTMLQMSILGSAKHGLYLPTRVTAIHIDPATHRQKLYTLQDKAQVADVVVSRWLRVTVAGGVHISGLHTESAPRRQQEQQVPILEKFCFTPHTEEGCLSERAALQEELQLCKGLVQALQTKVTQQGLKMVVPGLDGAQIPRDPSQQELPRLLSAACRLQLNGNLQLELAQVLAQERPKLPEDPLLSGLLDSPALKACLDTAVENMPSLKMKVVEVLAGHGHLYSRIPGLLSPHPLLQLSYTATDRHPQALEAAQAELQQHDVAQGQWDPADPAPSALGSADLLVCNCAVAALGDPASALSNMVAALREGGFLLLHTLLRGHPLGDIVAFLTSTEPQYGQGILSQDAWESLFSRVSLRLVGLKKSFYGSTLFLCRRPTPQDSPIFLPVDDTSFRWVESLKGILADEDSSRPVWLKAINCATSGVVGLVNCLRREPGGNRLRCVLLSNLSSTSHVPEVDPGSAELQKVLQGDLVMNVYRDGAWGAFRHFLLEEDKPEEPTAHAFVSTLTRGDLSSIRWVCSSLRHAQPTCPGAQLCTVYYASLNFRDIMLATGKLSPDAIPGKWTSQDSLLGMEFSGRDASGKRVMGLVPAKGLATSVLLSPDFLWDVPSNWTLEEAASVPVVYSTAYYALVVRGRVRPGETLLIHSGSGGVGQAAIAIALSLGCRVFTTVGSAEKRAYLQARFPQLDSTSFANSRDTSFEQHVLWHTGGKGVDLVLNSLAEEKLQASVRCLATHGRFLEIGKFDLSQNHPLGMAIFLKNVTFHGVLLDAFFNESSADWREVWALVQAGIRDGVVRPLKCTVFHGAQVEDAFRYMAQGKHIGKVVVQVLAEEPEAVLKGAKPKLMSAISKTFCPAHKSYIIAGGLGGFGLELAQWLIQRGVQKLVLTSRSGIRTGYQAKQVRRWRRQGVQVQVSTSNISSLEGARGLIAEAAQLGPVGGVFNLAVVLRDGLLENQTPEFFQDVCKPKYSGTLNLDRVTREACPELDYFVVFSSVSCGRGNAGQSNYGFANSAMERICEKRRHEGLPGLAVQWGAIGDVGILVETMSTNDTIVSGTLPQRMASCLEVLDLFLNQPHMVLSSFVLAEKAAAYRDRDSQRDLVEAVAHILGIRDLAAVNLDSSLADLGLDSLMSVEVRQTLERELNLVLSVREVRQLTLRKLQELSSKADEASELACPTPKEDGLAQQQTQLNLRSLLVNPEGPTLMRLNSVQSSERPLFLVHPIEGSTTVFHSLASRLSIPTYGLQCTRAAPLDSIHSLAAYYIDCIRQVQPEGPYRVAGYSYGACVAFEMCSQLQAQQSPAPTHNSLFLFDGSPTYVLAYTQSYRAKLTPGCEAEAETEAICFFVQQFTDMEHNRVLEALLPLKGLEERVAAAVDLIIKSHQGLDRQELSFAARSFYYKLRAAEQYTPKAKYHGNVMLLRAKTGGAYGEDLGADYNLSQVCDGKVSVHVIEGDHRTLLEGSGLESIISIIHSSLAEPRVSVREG

The test addresses human fatty acid synthase FASN (Homo sapiens (Human), UniProt P49327). The test can be described thus: Biochemical activity testing of human fatty acid synthase FASN (NADPH fluorescence intensity enzyme assay). The following applies: human recombinant full-length fatty acid synthase. The text has this:
Biochemical activity testing of human fatty acid synthase FASN
Fatty acid synthase FASN is a multifunctional enzyme with seven catalytic activities thereby synthesising long chain fatty acids especially palmitoyl-CoA in the presence of co-factor NADPH starting from the substrates acetyl-CoA and malonyl-CoA. The reductive synthesis is realized by the oxidation of NADPH to NADP. Since NADPH has a high fluorescence intensity quantum yield compared to NADP with excitation at 340 nm and emission at 460 nm, the reaction can be monitored via the decrease in fluorescence intensity. The biochemical FASN activity testing was performed as 384 well two-time-point kinetic fluorescence intensity assay format in Greiner low volume medium binding 384-well black microtiter plates in a total assay volume of 8 μl and was used for high throughput screen. In each well 3 μl 40 nM human recombinant full-length fatty acid synthase (produced in-house in SF9 cells) were dispensed in the following assay buffer: 50 mM potassium phosphate buffer pH 7.0, 0.005% (w/v) BSA, 2 mM Glutathione, 0.02% Tween-20. Then 2 μl of 200 μM NADPH in assay buffer were added, followed by the addition of the test compounds in 10 dilution concentrations starting with 30 μM (final concentration) to get a final DMSO content of 1% (v/v). The mixture was incubated for at least 15 min at room temperature. After the pre-incubation the enzymatic reaction was started by the addition of 2 μl substrate solution (80 μM acetyl-CoA, 240 μM malonyl-CoA). A first fluorescence intensity measurement (time point one) was performed with an Envision multimode reader (Perkin Elmer LAS Germany GmbH) at excitation wavelength 340 nm (lamp mode) and emission wavelength 460 nm. The reaction was incubated for 30 minutes at room temperature. After this the fluorescence intensity was measured again in the Envision using the same parameters as described above (second time point measurement). The data were analysed by subtracting the first time point measurement value from the second time point measurement value (after the enzymatic reaction). The differences of the emission signals were determined. These reflect directly the conversion rate of NADPH. The full value used was the inhibitor-free reaction. A pharmacological zero value was used like GSK837149A (Sigma-Aldrich) in a final concentration of 5-10 μM. The inhibitory values (IC50) were determined using either the program Symyx Assay Explorer® or Condosseo® from GeneData.
As to `CO[C@@H](C)C(=O)N[C@H]1CC[C@@H](N(C)C(=O)c2ccc(-c3nc4ccccc4o3)cc2)C1` [Compound A33, 4-benzoxazol-2-yl-N-[(1R,3S)-3-((S)-2-methoxy-propionylamino)-cyclopentyl]-N-methyl-benzamide], the pIC50 is over 6.52. The same measure for `COCC(=O)N[C@H]1CC[C@@H](N(C)C(=O)c2ccc(-c3nc4ccccc4o3)cc2)C1` [Compound A34, 4-benzoxazol-2-yl-N-[(1R,3S)-3-(2-methoxy-acetylamino)-cyclopentyl]-N-methyl-benzamide]: over 6.52. As for `CC(C)CC(=O)N[C@H]1CC[C@@H](N(C)C(=O)c2ccc(-c3nc4ccccc4o3)cc2)C1` [Compound A35, 4-benzoxazol-2-yl-N-methyl-N-[(1R,3S)-3-(3-methyl-butyrylamino)-cyclopentyl]-benzamide], the figure is over 6.52. As for `CN(C)CC(=O)N[C@H]1CC[C@@H](N(C)C(=O)c2ccc(-c3nc4ccccc4o3)cc2)C1` [Compound A36, 4-benzoxazol-2-yl-N-[(1R,3S)-3-(2-dimethylamino-acetylamino)-cyclopentyl]-N-methyl-benzamide], the figure is 5.52 to 6.52; as for `C[C@H](O)C(=O)N[C@H]1CC[C@@H](N(C)C(=O)c2ccc(-c3nc4ccccc4o3)cc2)C1` [Compound A37, 4-benzoxazol-2-yl-N-[(1R,3S)-3-((S)-2-hydroxy-propionylamino)-cyclopentyl]-N-methyl-benzamide], over 6.52.

Regarding `CC(=O)NCCC(=O)N[C@H]1CC[C@@H](N(C)C(=O)c2ccc(-c3nc4ccccc4o3)cc2)C1` [Compound A38, N-[(1R,3S)-3-(3-acetylamino-propionylamino)-cyclopentyl]-4-benzoxazol-2-yl-N-methyl-benzamide], the pIC50 is 5.52 to 6.52. In the case of `COC(=O)[C@H](CC(=O)N[C@H]1CC[C@@H](N(C)C(=O)c2ccc(-c3nc4ccccc4o3)cc2)C1)NC(C)=O` [Compound A39, (S)-2-acetylamino-N-{(1S,3R)-3-[(4-benzoxazol-2-yl-benzoyl)-methyl-amino]-cyclopentyl}-succinamic acid methyl ester], the pIC50 was 5.52 to 6.52. As for `CN(C(=O)c1ccc(-c2nc3ccccc3o2)cc1)[C@@H]1CC[C@H](NC(=O)[C@H]2CCCO2)C1` [Compound A40, (R)-tetrahydro-furan-2-carboxylic acid {(1S,3R)-3-[(4-benzoxazol-2-yl-benzoyl)-methyl-amino]-cyclopentyl}-amide], the figure is over 6.52; as for `CN(C(=O)c1ccc(-c2nc3ccccc3o2)cc1)[C@@H]1CC[C@H](NC(=O)[C@@H]2CCCO2)C1` [Compound A41, (S)-tetrahydro-furan-2-carboxylic acid {(1S,3R)-3-[(4-benzoxazol-2-yl-benzoyl)-methyl-amino]-cyclopentyl}-amide], over 6.52.

Take `CC(=O)N[C@@H](C(=O)N[C@H]1CC[C@@H](N(C)C(=O)c2ccc(-c3nc4ccccc4o3)cc2)C1)C(C)C` [Compound A42, N-[(1R,3S)-3-((R)-2-acetylamino-3-methyl-butyrylamino)-cyclopentyl]-4-benzoxazol-2-yl-N-methyl-benzamide]: the pIC50 is 4.30 to 5.52.

As for `CC(=O)N[C@H](C(=O)N[C@H]1CC[C@@H](N(C)C(=O)c2ccc(-c3nc4ccccc4o3)cc2)C1)C(C)C` [Compound A43, N-[(1R,3S)-3-((S)-2-acetylamino-3-methyl-butyrylamino)-cyclopentyl]-4-benzoxazol-2-yl-N-methyl-benzamide], the pIC50 is 5.52 to 6.52. Consider `CN(C(=O)c1ccc(-c2nc3ccccc3o2)cc1)[C@@H]1CC[C@H](NC(=O)CC2CCCC2)C1` [Compound A44], for which the pIC50 was over 6.52. The same measure for `CN(C(=O)c1ccc(-c2nc3ccccc3o2)cc1)[C@@H]1CC[C@H](NC(=O)C[C@@H]2CCC(=O)N2)C1` [Compound A45, 4-benzoxazol-2-yl-N-methyl-N-{(1R,3S)-3-[2-((S)-5-oxo-pyrrolidin-2-yl)-acetylamino]-cyclopentyl}-benzamide]: 4.30 to 5.52; for `CCC(=O)N[C@H]1CC[C@@H](N(C)C(=O)c2ccc(-c3ccc4cn[nH]c4c3)cc2)C1` [Compound A46, 4-(1H-indazol-6-yl)-N-methyl-N-((1R,3S)-3-propionylamino-cyclopentyl)-benzamide]: over 6.52; for `CC(=O)N[C@@H](C)C(=O)N[C@H]1CC[C@@H](N(C)C(=O)c2ccc(-c3nc4ccccc4o3)cc2)C1` [Compound A47, N-[(1R,3S)-3-((S)-2-acetylamino-propionylamino)-cyclopentyl]-4-benzoxazol-2-yl-N-methyl-benzamide]: 4.30 to 5.52.

`CCC(=O)N[C@H]1CC[C@@H](N(C)C(=O)c2ccc(-c3nc4cccc(F)c4o3)cc2)C1` [Compound A49, 4-(7-fluoro-benzoxazol-2-yl)-N-methyl-N-((1R,3S)-3-propionylamino-cyclopentyl)-benzamide]: the pIC50 is over 6.52.

`CN(C(=O)c1ccc(-c2nc3cccc(F)c3o2)cc1)[C@@H]1CC[C@H](NC(=O)C2CC2)C1` [Compound A50, N-[(1R,3S)-3-(cyclopropanecarbonyl-amino)-cyclopentyl]-4-(7-fluoro-benzoxazol-2-yl)-N-methyl-benzamide]: the pIC50 is 5.52 to 6.52.

As to `CCC(=O)N[C@H]1CC[C@@H](N(C)C(=O)c2ccc(-c3ccc(C(=O)O)cc3)cc2)C1` [Compound A51, 4′-[methyl-((1R,3S)-3-propionylamino-cyclopentyl)-carbamoyl]-biphenyl-4-carboxylic acid], the pIC50 was over 6.52.

With `CCC(=O)N[C@H]1CC[C@@H](N(C)C(=O)c2ccc(-c3ccc(C(=O)O)c(C)c3)cc2)C1` [Compound A52, 3-methyl-4′-[methyl-((1R,3S)-3-propionylamino-cyclopentyl)-carbamoyl]-biphenyl-4-carboxylic acid], the pIC50 was over 6.52. As for `CCC(=O)N[C@H]1CC[C@@H](N(C)C(=O)c2ccc(-c3ccc(F)cc3)cc2)C1` [Compound A53, 4′-fluoro-biphenyl-4-carboxylic acid methyl-((1R,3S)-3-propionylamino-cyclopentyl)-amide], the figure is over 6.52; as for `CCC(=O)N[C@H]1CC[C@@H](N(C)C(=O)c2ccc(-c3ccc(C4CCC(C)CC4)cc3F)cc2)C1` (stereo partly drawn) [Compound A54, 2′-fluoro-4′-(4-methyl-cyclohexyl)-biphenyl-4-carboxylic acid methyl-((1R,3S)-3-propionylamino-cyclopentyl)-amide], 5.52 to 6.52. The same measure for `CCC(=O)N[C@H]1CC[C@@H](N(C)C(=O)c2ccc(-c3ccc(C(C)(C)C)cc3)cc2)C1` [Compound A55, tert-butyl-biphenyl-4-carboxylic acid methyl-((1R,3S)-3-propionylamino-cyclopentyl)-amide]: 4.30 to 5.52.

As to `CCC(=O)N[C@H]1CC[C@@H](N(C)C(=O)c2ccc(-c3ccc(OC)c(OC)c3)cc2)C1` [Compound A56, 3′,4′-dimethoxy-biphenyl-4-carboxylic acid methyl-((1R,3S)-3-propionylamino-cyclopentyl)-amide], the pIC50 is over 6.52.

For the molecule `CCC(=O)N[C@H]1CC[C@@H](N(C)C(=O)c2ccc(-c3ccc(C(N)=O)cc3)cc2)C1` [Compound A57, biphenyl-4,4′-dicarboxylic acid 4′-amide 4-[methyl-((1R,3S)-3-propionylamino-cyclopentyl)-amide]], the pIC50 was over 6.52.

These data come from patent US9670142B2, “1,3-diaminocyclopentane carboxamide derivatives” (Merck Patent GmbH, priority 2013, dated 2017).
